This note sets out measurements from patent US20020019527A1 (priority 2000, published 2002).

Structures can show the parent of a compound that is named as a salt.

T1 sequence (P49355 whole entry, one chain of several): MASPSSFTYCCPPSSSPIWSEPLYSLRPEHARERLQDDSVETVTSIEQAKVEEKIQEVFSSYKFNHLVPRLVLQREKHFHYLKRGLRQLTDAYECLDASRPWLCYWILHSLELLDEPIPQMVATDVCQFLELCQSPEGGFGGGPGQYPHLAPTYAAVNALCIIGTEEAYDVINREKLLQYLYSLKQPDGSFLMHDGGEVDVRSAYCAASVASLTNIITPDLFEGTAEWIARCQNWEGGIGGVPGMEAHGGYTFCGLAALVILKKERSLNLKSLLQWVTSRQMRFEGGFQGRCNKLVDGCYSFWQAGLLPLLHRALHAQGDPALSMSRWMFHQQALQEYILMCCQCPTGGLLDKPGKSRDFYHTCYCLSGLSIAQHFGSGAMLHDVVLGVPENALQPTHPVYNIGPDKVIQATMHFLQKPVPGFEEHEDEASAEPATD

The first experiment concerns the target T1, Farnesyltransferase (FTase) (Bos taurus, UniProt P29702+P49355).
T1 construct: precipitation from a beef brain homogenate; from tissue; host or cells: bovine brain
Description: Farnesyltransferase inhibition (scintillation proximity assay, [3H]-FPP / biotin-K-ras peptide). Type of experiment: biochemical, bovine.
Settings: not given
An outline of the steps: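 Bovine brain FTase, partially purified by 30–50% saturated ammonium sulfate precipitation and DEAE Sepharose chromatography, separated from GGTase I/II. Scintillation proximity read-out of [3H]-FPP transfer to biotin-K-ras peptide, counted 1 h after quench. Compounds added from ethanol with 10-fold dilution into assay.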
(In general: In a scintillation proximity assay essentially only radioactivity close to the scintillant gives light.)
Broadly, the % Inhibition is the relative decrease from the control value, in per cent. A low value points to little suppression. `Cc1ccccc1-c1cc(C(OCc2ccc([N+](=O)[O-])cc2)c2cncn2C)ccc1C#N.Cl` (centres unmarked) [Example 121]: the “% Inhibition at 10^−6M” value is 96%.
`Cc1ccccc1-c1cc(C(OCc2cccc(C(F)(F)F)c2)c2cncn2C)ccc1C#N.Cl` (centres unmarked) [Example 123]: the “% Inhibition at 10^−6M” value came out at 97%.
Take `Cc1ccc(COC(c2ccc(C#N)c(-c3ccccc3C)c2)c2cncn2C)cc1.Cl` (centres unmarked) [Example 127]: the “% Inhibition at 10^−6M” value is 93%.
Turning to `Cc1cccc(COC(c2ccc(C#N)c(-c3ccccc3C)c2)c2cncn2C)c1.Cl` (centres unmarked) [Example 128], the “% Inhibition at 10^−6M” value is given as 94%.

Still in this experiment, the particulars now being: compound at 10^−6 M; bovine FTase, 37° C., 30 minutes.
The term inhibition denotes how much of the control response was suppressed. Low readings indicate a weak effect, high ones a strong effect. Take `Cn1cncc1C(OCc1ccccc1)c1ccc(C#N)c(C2CCCCC2)c1` (centres unmarked) [Example 100, 4-((benzyloxy)(1-methyl-1H-imidazol-5-yl)methyl)-2-cyclohexylbenzonitrile hydrochloride]: the inhibition at 1 µM was determined as 83%.
In turn, `CCOCn1cncc1C(OCc1ccccc1)c1ccc(C#N)c(-c2cccc3ccccc23)c1` (centres unmarked) [Example 105, 4-((benzyloxy)(1-(ethoxymethyl)-1H-imidazol-5-yl)methyl)-2-(1-naphthyl)benzonitrile hydrochloride] registered an inhibition at 1 µM of 82%.
The compound `Cc1ccccc1-c1cc(C(O)(C#Cc2ccccc2)c2cncn2C)ccc1C#N` (centres unmarked) [Example 109, 5-(1-hydroxy-1-(1-methyl-1H-imidazol-5-yl)-3-phenyl-2-propynyl)-2′-methyl(1,1′-biphenyl)-2-carbonitrile] had an inhibition at 1 µM of 100%.
On the same count and under the same terms, under `Cc1ccccc1-c1cc(C(O)(CCc2ccccc2)c2cncn2C)ccc1C#N` (centres unmarked) [Example 110, 5-(1-hydroxy-1-(1-methyl-1H-imidazol-5-yl)-3-phenylpropyl)-2′-methyl(1,1′-biphenyl)-2-carbonitrile] stands 96%.
`Cn1cncc1C(O)(C#Cc1ccccc1)c1ccc(C#N)c(-c2cccc3ccccc23)c1` (centres unmarked) [Example 111, 4-(1-hydroxy-1-(1-methyl-1H-imidazol-5-yl)-3-phenyl-2-propynyl)-2-(1-naphthyl)benzonitrile] displayed an inhibition at 1 µM of 100%.
`Cn1cncc1C(OCc1ccc(C#N)cc1)c1ccc(F)c(-c2cccc3ccccc23)c1` (centres unmarked) [Example 112, 4-(((4-fluoro-3-(1-naphthyl)phenyl)(1-methyl-1H-imidazol-5-yl)methoxy)methyl)benzonitrile para-toluenesulfonic acid salt] registered an inhibition at 1 µM of 100%.
The compound `Cc1ccccc1-c1cc(C(OCc2cccc(C#N)c2)c2cncn2C)ccc1C#N` (centres unmarked) [Example 113, 5-(((3-cyanobenzyl)oxy)(1-methyl-1H-imidazol-5-yl)methyl)-2′-methyl(1,1′-biphenyl)-2-carbonitrile hydrochloride] returned an inhibition at 1 µM of 90%.
Compound `Cn1cncc1CN(Cc1ccc(C#N)cc1)Cc1ccc(C#N)c(-c2cccc3cccnc23)c1` [Example 114, 4-(((4-cyanobenzyl)((1-methyl-1H-imidazol-5-yl)methyl)amino)methyl)-2-(8-quinolinyl)benzonitrile] registered an inhibition at 1 µM of 99%.
Consider `Cc1ccccc1-c1cc(C(OCc2ccc(C(C)(C)C)cc2)c2cncn2C)ccc1C#N` (centres unmarked) [Example 115, 5-(((4-(tert-butyl)benzyl)oxy)(1-methyl-1H-imidazol-5-yl)methyl)-2′-methyl(1,1′-biphenyl)-2-carbonitrile hydrochloride], for which the inhibition at 1 µM came out at 89%.
Compound `Cc1ccccc1-c1cc(C(OCc2ccc(C#N)cc2)c2cncn2C)ccc1C#N` (centres unmarked) [Example 116, 5-(((4-cyanobenzyl)oxy)(1-methyl-1H-imidazol-5-yl)methyl)-2′-methyl(1,1′-biphenyl)-2-carbonitrile hydrochloride] registered an inhibition at 1 µM of 99%.
For `Cc1ccccc1-c1cc(C(OCc2cccc(I)c2)c2cncn2C)ccc1C#N` (centres unmarked) [Example 117, 5-(((3-iodobenzyl)oxy)(1-methyl-1H-imidazol-5-yl)methyl)-2′-methyl(1,1′-biphenyl)-2-carbonitrile hydrochloride], the inhibition at 1 µM turned out to be 90%.
For the compound `Cc1ccccc1-c1cc(C(OCc2ccc(F)cc2)c2cncn2C)ccc1C#N` (centres unmarked) [Example 118, 5-(((4-fluorobenzyl)oxy)(1-methyl-1H-imidazol-5-yl)methyl)-2′-methyl(1,1′-biphenyl)-2-carbonitrile hydrochloride], the inhibition at 1 µM is 90%.
The compound `Cc1ccccc1-c1cc(C(OCc2ccc(Br)cc2)c2cncn2C)ccc1C#N` (centres unmarked) [Example 119, 5-(((4-bromobenzyl)oxy)(1-methyl-1H-imidazol-5-yl)methyl)-2′-methyl(1,1′-biphenyl)-2-carbonitrile hydrochloride] came in with an inhibition at 1 µM of 93%.
Take `Cc1ccccc1-c1cc(C(OCc2cccc(Cl)c2)c2cncn2C)ccc1C#N` (centres unmarked) [Example 120, 5-(((3-chlorobenzyl)oxy)(1-methyl-1H-imidazol-5-yl)methyl)-2′-methyl(1,1′-biphenyl)-2-carbonitrile hydrochloride]: the inhibition at 1 µM was found to be 90%.
Regarding `COc1ccc([N+](=O)[O-])cc1COC(c1ccc(C#N)c(-c2ccccc2C)c1)c1cncn1C` (centres unmarked) [Example 122, 5-(((2-methoxy-5-nitrobenzyl)oxy)(1-methyl-1H-imidazol-5-yl)methyl)-2′-methyl(1,1′-biphenyl)-2-carbonitrile hydrochloride], 1 µM produced 94% inhibition.
In the case of `Cc1ccccc1-c1cc(C(OCc2c(Cl)cccc2Cl)c2cncn2C)ccc1C#N` (centres unmarked) [Example 124, 5-(((2,6-dichlorobenzyl)oxy)(1-methyl-1H-imidazol-5-yl)methyl)-2′-methyl(1,1′-biphenyl)-2-carbonitrile hydrochloride], at 1 µM the inhibition was 90%.
The compound `Cc1ccccc1-c1cc(C(OCc2ccc(Cl)c(Cl)c2)c2cncn2C)ccc1C#N` (centres unmarked) [Example 125, 5-(((3,4-dichlorobenzyl)oxy)(1-methyl-1H-imidazol-5-yl)methyl)-2′-methyl(1,1′-biphenyl)-2-carbonitrile hydrochloride] came in with an inhibition at 1 µM of 97%.
Regarding `Cc1ccccc1-c1cc(C(OCc2ccccc2C#N)c2cncn2C)ccc1C#N` (centres unmarked) [Example 126, 5-(((2-cyanobenzyl)oxy)(1-methyl-1H-imidazol-5-yl)methyl)-2′-methyl(1,1′-biphenyl)-2-carbonitrile hydrochloride], the inhibition at 1 µM is 92%.
In the case of `Cc1ccccc1-c1cc(C(OCc2cc(F)ccc2F)c2cncn2C)ccc1C#N` (centres unmarked) [Example 129, 5-(((2,5-difluorobenzyl)oxy)(1-methyl-1H-imidazol-5-yl)methyl)-2′-methyl(1,1′-biphenyl)-2-carbonitrile hydrochloride], the inhibition at 1 µM was 93%.
`COC(=O)c1ccc(COC(c2ccc(C#N)c(-c3ccccc3C)c2)c2cncn2C)cc1` (centres unmarked) [Example 130, methyl 4-(((6-cyano-2′-methyl(1,1′-biphenyl)-3-yl)(1-methyl-1H-imidazol-5-yl)methoxy)methyl)benzoate hydrochloride] gave an inhibition at 1 µM of 97%.
The same measure, in the same setting: under `Cc1ccccc1-c1cc(C(OCc2ccccc2Cl)c2cncn2C)ccc1C#N` (centres unmarked) [Example 132, 5-(((2-chlorobenzyl)oxy)(1-methyl-1H-imidazol-5-yl)methyl)-2′-methyl(1,1′-biphenyl)-2-carbonitrile hydrochloride] stands 94%; under `Cc1ccccc1-c1cc(C(OCc2ccc(Cl)cc2)c2cncn2C)ccc1C#N` (centres unmarked) [Example 133, 5-(((4-chlorobenzyl)oxy)(1-methyl-1H-imidazol-5-yl)methyl)-2′-methyl(1,1′-biphenyl)-2-carbonitrile hydrochloride], 97%.
